Source: US9592221B2, “Antibacterial agents: aryl myxopyronin derivatives” (priority 2012, dated 2017)

What was measured:
[1] = target: E. coli RNA polymerase σ^70 holoenzyme (Escherichia coli, UniProt P0A8T7+P0A8V2); assay: Fluorescence-detected RNA polymerase assay, E. coli RNA polymerase; assay type: biochemical; conditions: read-out: IC50 E. coli RNAP
[2] = tested on: Staphylococcus aureus ATCC 12600; assay: MIC, spiral gradient endpoint assay, S. aureus ATCC 12600; assay type: cell-based; conditions: ATCC12600; Staphylococcus aureus ATCC 12600
[3] = tested on: Acinetobacter baumannii ATCC 19606; assay: MIC, spiral gradient endpoint assay, A. baumannii; assay type: cell-based; conditions: ATCC19606; Acinetobacter baumannii ATCC 19606
[4] = tested on: Escherichia coli D21f2tolC; assay: MIC, spiral gradient endpoint assay, E. coli D21f2tolC; assay type: cell-based; conditions: Escherichia coli, D21F2TOLC, read-out: MIC E. coli D21f2toIC
[5] = tested on: Mycobacterium tuberculosis H37Rv; assay: MIC, microplate Alamar Blue assay, M. tuberculosis; assay type: cell-based
[6] = tested on: Bacillus anthracis Vollum 1b; assay: microbe, parasite or virus in culture; assay type: cell-based; conditions: Bacillus anthracis, VOLLUM1B, read-out: MIC B. anthracis Vollum-1b
[7] = tested on: Francisella tularensis SCHU4; assay: microbe, parasite or virus in culture; assay type: cell-based; conditions: Francisella tularensis, SCHU4, read-out: MIC F. tularensis SCHU4
Yersinia pestis C092 = assay: microbe, parasite or virus in culture; assay type: cell-based; conditions: Yersinia pestis, C092, read-out: MIC Y. pestis C092
Burkholderia mallei CHN7 = assay: microbe, parasite or virus in culture; assay type: cell-based; conditions: Burkholderia mallei, CHN7, read-out: MIC B. mallei CHN7
[8] = tested on: Burkholderia pseudomallei Human/Blood/OH/US/1994; assay: microbe, parasite or virus in culture; assay type: cell-based; conditions: Burkholderia pseudomallei, read-out: MIC B. pseudomallei Human/Blood/OH
Brucella melitensis 16M = assay: microbe, parasite or virus in culture; assay type: cell-based; conditions: Brucella melitensis, 16M, read-out: MIC B. melitensis 16M

Sequence of E. coli RNA polymerase σ^70 holoenzyme (P0A8T7 whole entry): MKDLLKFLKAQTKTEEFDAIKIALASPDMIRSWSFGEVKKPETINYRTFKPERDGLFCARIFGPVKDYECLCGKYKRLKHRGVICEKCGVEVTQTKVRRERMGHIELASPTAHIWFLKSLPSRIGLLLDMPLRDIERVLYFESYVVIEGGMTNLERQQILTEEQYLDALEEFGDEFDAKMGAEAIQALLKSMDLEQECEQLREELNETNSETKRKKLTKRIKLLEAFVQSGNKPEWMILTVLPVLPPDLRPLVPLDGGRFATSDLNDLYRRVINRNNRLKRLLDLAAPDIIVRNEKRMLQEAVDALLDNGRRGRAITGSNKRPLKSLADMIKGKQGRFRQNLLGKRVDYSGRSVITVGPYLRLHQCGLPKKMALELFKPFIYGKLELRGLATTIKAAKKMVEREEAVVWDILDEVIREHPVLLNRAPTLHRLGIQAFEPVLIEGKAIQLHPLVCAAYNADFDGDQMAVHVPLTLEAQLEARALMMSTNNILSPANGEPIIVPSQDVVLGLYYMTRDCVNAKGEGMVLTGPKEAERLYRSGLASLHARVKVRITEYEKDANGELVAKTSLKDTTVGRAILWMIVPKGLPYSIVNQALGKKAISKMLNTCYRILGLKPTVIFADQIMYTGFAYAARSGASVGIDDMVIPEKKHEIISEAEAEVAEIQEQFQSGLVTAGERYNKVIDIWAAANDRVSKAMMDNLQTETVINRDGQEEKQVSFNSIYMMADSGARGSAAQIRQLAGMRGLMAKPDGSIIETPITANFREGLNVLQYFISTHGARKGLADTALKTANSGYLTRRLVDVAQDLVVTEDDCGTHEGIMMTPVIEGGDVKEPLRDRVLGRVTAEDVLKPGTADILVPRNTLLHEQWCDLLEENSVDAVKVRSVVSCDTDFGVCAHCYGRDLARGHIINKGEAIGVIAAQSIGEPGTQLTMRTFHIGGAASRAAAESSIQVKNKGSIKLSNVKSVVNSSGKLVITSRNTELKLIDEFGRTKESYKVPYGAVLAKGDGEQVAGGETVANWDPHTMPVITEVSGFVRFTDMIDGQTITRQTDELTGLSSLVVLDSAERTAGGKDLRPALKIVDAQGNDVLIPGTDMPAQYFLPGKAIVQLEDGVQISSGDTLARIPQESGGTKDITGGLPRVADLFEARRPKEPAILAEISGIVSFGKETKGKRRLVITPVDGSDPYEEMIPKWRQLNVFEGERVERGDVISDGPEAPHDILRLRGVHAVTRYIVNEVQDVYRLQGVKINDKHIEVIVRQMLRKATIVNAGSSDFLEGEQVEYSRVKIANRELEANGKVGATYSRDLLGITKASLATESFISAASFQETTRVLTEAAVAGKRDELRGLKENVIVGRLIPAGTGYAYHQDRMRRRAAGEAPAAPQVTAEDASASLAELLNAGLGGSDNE
Sequence of E. coli RNA polymerase σ^70 holoenzyme (P0A800 whole entry, further chain): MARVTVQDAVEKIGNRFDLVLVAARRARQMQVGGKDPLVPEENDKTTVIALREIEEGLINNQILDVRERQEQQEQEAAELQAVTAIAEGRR
Sequence of E. coli RNA polymerase σ^70 holoenzyme (P0A8V2 whole entry): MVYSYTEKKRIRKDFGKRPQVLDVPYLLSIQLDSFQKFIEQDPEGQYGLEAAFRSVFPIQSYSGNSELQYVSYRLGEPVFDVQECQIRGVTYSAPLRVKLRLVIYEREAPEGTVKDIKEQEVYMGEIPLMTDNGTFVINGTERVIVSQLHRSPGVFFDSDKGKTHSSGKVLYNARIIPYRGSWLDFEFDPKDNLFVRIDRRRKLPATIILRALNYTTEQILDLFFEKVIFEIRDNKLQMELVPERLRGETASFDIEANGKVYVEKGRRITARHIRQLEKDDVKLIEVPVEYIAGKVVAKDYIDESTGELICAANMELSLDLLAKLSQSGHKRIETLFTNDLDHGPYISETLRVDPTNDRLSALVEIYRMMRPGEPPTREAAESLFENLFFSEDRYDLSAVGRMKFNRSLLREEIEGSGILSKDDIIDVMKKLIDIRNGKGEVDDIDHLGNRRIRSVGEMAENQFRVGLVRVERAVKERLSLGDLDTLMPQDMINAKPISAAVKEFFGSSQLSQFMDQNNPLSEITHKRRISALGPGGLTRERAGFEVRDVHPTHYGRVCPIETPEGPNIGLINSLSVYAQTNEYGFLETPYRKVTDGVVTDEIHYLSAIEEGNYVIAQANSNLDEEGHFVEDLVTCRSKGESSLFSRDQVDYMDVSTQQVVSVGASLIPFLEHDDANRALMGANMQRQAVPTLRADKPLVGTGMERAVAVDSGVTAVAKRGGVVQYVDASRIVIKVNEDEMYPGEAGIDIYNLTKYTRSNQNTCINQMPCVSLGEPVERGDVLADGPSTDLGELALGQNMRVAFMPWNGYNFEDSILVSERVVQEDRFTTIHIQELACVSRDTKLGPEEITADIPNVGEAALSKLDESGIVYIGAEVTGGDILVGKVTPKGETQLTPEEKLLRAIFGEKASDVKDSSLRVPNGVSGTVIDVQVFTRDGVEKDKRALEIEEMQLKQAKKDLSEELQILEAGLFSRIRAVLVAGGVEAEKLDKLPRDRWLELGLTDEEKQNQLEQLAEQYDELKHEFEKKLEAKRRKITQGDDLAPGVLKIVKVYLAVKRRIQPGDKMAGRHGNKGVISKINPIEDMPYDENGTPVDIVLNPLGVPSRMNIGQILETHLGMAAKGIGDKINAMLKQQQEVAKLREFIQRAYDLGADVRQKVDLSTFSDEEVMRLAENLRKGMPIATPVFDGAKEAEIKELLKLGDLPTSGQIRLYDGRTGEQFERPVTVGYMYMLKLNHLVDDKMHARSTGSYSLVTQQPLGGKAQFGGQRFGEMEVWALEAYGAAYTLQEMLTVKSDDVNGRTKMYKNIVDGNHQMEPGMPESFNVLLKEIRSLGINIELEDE
Sequence of E. coli RNA polymerase σ^70 holoenzyme (P00579 whole entry, further chain): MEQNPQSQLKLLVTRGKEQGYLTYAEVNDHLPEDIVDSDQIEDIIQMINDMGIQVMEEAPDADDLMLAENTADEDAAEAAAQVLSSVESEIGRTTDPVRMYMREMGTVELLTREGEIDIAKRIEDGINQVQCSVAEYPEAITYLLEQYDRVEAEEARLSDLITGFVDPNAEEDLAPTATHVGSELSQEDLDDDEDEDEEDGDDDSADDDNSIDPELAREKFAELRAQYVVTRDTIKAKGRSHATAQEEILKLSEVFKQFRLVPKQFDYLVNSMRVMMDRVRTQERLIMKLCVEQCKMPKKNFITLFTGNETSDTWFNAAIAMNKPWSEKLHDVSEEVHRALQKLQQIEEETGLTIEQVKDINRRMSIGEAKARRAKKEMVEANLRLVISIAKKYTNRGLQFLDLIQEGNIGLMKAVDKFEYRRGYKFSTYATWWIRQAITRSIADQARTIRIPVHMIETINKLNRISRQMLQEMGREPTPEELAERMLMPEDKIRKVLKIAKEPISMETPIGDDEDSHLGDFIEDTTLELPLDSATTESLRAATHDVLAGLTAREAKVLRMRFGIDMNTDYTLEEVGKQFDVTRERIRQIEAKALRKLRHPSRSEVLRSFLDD
Sequence of E. coli RNA polymerase σ^70 holoenzyme (P0A7Z4 whole entry, further chain): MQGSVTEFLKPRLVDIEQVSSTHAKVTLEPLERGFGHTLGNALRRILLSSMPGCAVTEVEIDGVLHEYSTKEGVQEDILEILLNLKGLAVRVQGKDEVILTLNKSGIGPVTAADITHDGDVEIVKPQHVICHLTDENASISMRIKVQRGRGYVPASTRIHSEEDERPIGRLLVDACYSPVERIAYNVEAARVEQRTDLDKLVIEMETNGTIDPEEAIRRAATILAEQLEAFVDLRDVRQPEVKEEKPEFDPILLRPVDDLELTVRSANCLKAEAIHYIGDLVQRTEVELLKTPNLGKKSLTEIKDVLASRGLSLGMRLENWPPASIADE

Structure (SMILES) | IC50 [1] [nM] | MIC [2] [µg/mL] | MIC [3] [µg/mL] | MIC [4] [µg/mL] | MIC [5] [µg/mL] | MIC [6] [µg/mL] | MIC [7] [µg/mL] | MIC (Yersinia pestis C092) [µg/mL] | MIC (Burkholderia mallei CHN7) [µg/mL] | MIC [8] [µg/mL] | MIC (Brucella melitensis 16M) [µg/mL]
COC(=O)N/C=C/CCC(C)c1cc(O)c(C(=O)C(C)=Cc2ccc(CC3CC3)s2)c(=O)o1 (mixture of isomers) [APY125, methyl ((1E)-5-(3-(3-(5-(cyclopropylmethyl)thiophen-2-yl)-2-methylacryloyl)-4-hydroxy-2-oxo-2H-pyran-6-yl)hex-1-en-1-yl)carbamate] | 40 | 1 | 20 | 0.6 | 10 | 6 | > 50 | 6 | 10 | 50 | 6
COC(=O)N/C=C/CCC(C)c1cc(O)c(C(=O)C(C)=Cc2ccc(OCCC(F)(F)F)s2)c(=O)o1 (mixture of isomers) [APY139, methyl ((1E)-5-(4-hydroxy-3-(2-methyl-3-(5-(3,3,3-trifluoropropoxy)thiophen-2-yl)acryloyl)-2-oxo-2H-pyran-6-yl)hex-1-en-1-yl)carbamate] | 30 | 2 | > 40 | 0.2 | 6 | 6 | > 50 | 10 | 50 | > 50 | 10
COC(=O)N/C=C/CCC(C)c1cc(O)c(C(=O)C(C)=Cc2ccc(CCC(F)(F)F)cc2C)c(=O)o1 (mixture of isomers) [APY127, methyl ((1E)-5-(4-hydroxy-3-(2-methyl-3-(2-methyl-4-(3,3,3-trifluoropropyl)phenyl)acryloyl)-2-oxo-2H-pyran-6-yl)hex-1-en-1-yl)carbamate] | 70 | 2 | > 40 | 0.4 | 50 | 6 | > 50 | 50 | 50 | 50 | 50
COC(=O)N/C=C/CCC(C)c1cc(O)c(C(=O)C(C)=Cc2ccc(OCC(F)F)s2)c(=O)o1 (mixture of isomers) [APY138, methyl ((1E)-5-(3-(3-(5-(2,2-difluoroethoxy)thiophen-2-yl)-2-methylacryloyl)-4-hydroxy-2-oxo-2H-pyran-6-yl)hex-1-en-1-yl)carbamate] | 300 | 10 | > 40 | 0.5 | 10 | 50 | > 50 | 50 | > 50 | > 50 | 50
COC(=O)N/C=C/CCC(C)c1cc(O)c(C(=O)C(C)=Cc2ccc(Oc3ccc(C(F)(F)F)cc3)s2)c(=O)o1 (mixture of isomers) [APY119, methyl ((1E)-5-(4-hydroxy-3-(2-methyl-3-(5-(4-(trifluoromethyl)phenoxy)thiophen-2-yl)acryloyl)-2-oxo-2H-pyran-6-yl)hex-1-en-1-yl)carbamate] | 6 | 2 | > 40 | 0.1 | > 50 | 0.8 | 50 | 3 | 3 | 6 | 3
CCCCc1ncc(C=C(C)C(=O)c2c(O)cc(C(C)CC/C=C/NC(=O)OC)oc2=O)s1 (mixture of isomers) [APY136, methyl ((1E)-5-(3-(3-(2-butylthiazol-5-yl)-2-methylacryloyl)-4-hydroxy-2-oxo-2H-pyran-6-yl)hex-1-en-1-yl)carbamate] | 20 | 1 | > 40 | 0.2 | 6 | 10 | > 50 | 10 | 30 | 50 | 6
CCCCc1ccc(C=CC(=O)c2c(O)cc(C(C)CC/C=C/NC(=O)OC)oc2=O)s1 (mixture of isomers) [APY36, methyl (E)-5-(3-((E/Z)-3-(5-butylthiophen-2-yl)acryloyl)-4-hydroxy-2-oxo-2H-pyran-6-yl)hex-1-enylcarbamate] | 300 | > 40 | > 40 | 0.7 | 30 | 6 | 6 | > 50 | > 50 | > 50 | > 50
COC(=O)N/C=C/CCC(C)c1cc(O)c(C(=O)C(C)=Cc2ccc(OCC(F)F)cc2)c(=O)o1 (mixture of isomers) [APY132, methyl ((1E)-5-(3-(3-(4-(2,2-difluoroethoxy)phenyl)-2-methylacryloyl)-4-hydroxy-2-oxo-2H-pyran-6-yl)hex-1-en-1-yl)carbamate] | 200 | 5 | > 40 | 0.7 | 10 | 30 | > 50 | > 50 | > 50 | > 50 | 30
COC(=O)N/C=C/CCC(C)c1cc(O)c(C(=O)C(C)=Cc2ccc(OCC(F)(F)F)cc2)c(=O)o1 (mixture of isomers) [APY117, methyl ((1E)-5-(4-hydroxy-3-(2-methyl-3-(4-(2,2,2-trifluoroethoxy)phenyl)acryloyl)-2-oxo-2H-pyran-6-yl)hex-1-en-1-yl)carbamate] | 100 | 2 | > 40 | 0.4 | 10 | 10 | > 50 | 50 | 50 | > 50 | 10
CCCOc1ccc2c(c1)cc(C=C(C)C(=O)c1c(O)cc(C(C)CC/C=C/NC(=O)OC)oc1=O)n2C (mixture of isomers) [APY121, methyl ((1E)-5-(4-hydroxy-3-(2-methyl-3-(1-methyl-5-propoxy-1H-indol-2-yl)acryloyl)-2-oxo-2H-pyran-6-yl)hex-1-en-1-yl)carbamate] | 500 | > 40 | > 40 | 0.8 | > 50 | > 50 | > 50 | > 50 | > 50 | > 50 | > 50
COC(=O)N/C=C/CCC(C)c1cc(O)c(C(=O)C(C)=Cc2sc(CC(C)C)cc2Br)c(=O)o1 (mixture of isomers) [APY124, methyl ((1E)-5-(3-(3-(3-bromo-5-isobutylthiophen-2-yl)-2-methylacryloyl)-4-hydroxy-2-oxo-2H-pyran-6-yl)hex-1-en-1-yl)carbamate] | 4 | 0.9 | 6 | 0.3 | 50 | 0.2 | 6 | 6 | 10 | 30 | 10
CCCCOc1cccc(C=C(C)C(=O)c2c(O)cc(C(C)CC/C=C/NC(=O)OC)oc2=O)c1 (mixture of isomers) [APY42, methyl (E)-5-(3-((E/Z)-3-(3-butoxyphenyl)-2-methylacryloyl)-4-hydroxy-2-oxo-2H-pyran-6-yl)hex-1-enylcarbamate] | 30 | > 40 | > 40 | 0.4 | 30 | 10 | 50 | > 50 | 50 | 50 | 6
CCCOc1ccc(C=C(C)C(=O)c2c(O)cc(C(C)CC/C=C/NC(=O)OC)oc2=O)c(C)c1 (mixture of isomers) [APY128, methyl ((1E)-5-(4-hydroxy-3-(2-methyl-3-(2-methyl-4-propoxyphenyl)acryloyl)-2-oxo-2H-pyran-6-yl)hex-1-en-1-yl)carbamate] | 500 | 4 | > 40 | 0.6 | 30 | 10 | > 50 | > 50 | > 50 | > 50 | > 50
COC(=O)N/C=C/CCC(C)c1cc(O)c(C(=O)C(C)=Cc2cnc(CCC(C)C)s2)c(=O)o1 (mixture of isomers) [APY137, methyl ((1E)-5-(4-hydroxy-3-(3-(2-isopentylthiazol-5-yl)-2-methylacryloyl)-2-oxo-2H-pyran-6-yl)hex-1-en-1-yl)carbamate] | 10 | 1 | > 40 | 0.08 | 6 | 3 | 50 | 10 | 10 | 30 | 6
COC(=O)N/C=C/CCC(C)c1cc(O)c(C(=O)C(C)=Cc2cc3cc(OC(C)C)ccc3n2C)c(=O)o1 (mixture of isomers) [APY123] | 500 | > 40 | > 40 | 2 | > 50 | > 50 | > 50 | > 50 | > 50 | > 50 | > 50
